Data: the supplement of paper PMC10307832

What was measured:
Test in all cases: relative viability (nuclei count vs DMSO), 5 days (fraction); higher = more cells survive
Entinostat + Vorinostat = compound: Nc1ccccc1NC(=O)c1ccc(CNC(=O)OCc2cccnc2)cc1 [Entinostat] + O=C(CCCCCCC(=O)Nc1ccccc1)NO [Vorinostat] (partner 1 µM)
Summary of the method: (§1)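 Relative viability is defined as nuclei in treated wells over nuclei in vehicle wells. Duplicate plates were run and medians reported. Lung cancer cell lines in 1536-well plates were dosed by pin tool one day after seeding, with one drug or with a fixed anchor-drug dose plus five library-drug doses (not always all listed) in √10 steps, and nuclei were counted after 5 days.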

SGI-1776 + Navitoclax = compound: CN1CCC(CNc2ccc3ncc(-c4cccc(OC(F)(F)F)c4)n3n2)CC1 [SGI-1776] + CC1(C)CCC(c2ccc(Cl)cc2)=C(CN2CCN(c3ccc(C(=O)NS(=O)(=O)c4ccc(N[C@H](CCN5CCOCC5)CSc5ccccc5)c(S(=O)(=O)C(F)(F)F)c4)cc3)CC2)C1 [Navitoclax] (partner 0.5 µM)
Summary of the method: as §1

Entinostat + AZD7762 = compound: Nc1ccccc1NC(=O)c1ccc(CNC(=O)OCc2cccnc2)cc1 [Entinostat] + NC(=O)Nc1cc(-c2cccc(F)c2)sc1C(=O)N[C@H]1CCCNC1 [AZD7762] (partner 0.2 µM)
Summary of the method: as §1

Entinostat + Decitabine = compound: Nc1ccccc1NC(=O)c1ccc(CNC(=O)OCc2cccnc2)cc1 [Entinostat] + Nc1ncn([C@H]2C[C@H](O)[C@@H](CO)O2)c(=O)n1 [Decitabine] (partner 2 µM)
Summary of the method: as §1

| Cell Line | relative viability (Entinostat + Vorinostat; first compound 0.02 µM) | relative viability (Entinostat + Vorinostat; first compound 0.06325 µM) | relative viability (Entinostat + Vorinostat; first compound 0.2 µM) | relative viability (Entinostat + Vorinostat; first compound 0.6325 µM) | relative viability (Entinostat + Vorinostat; first compound 2 µM) | relative viability (SGI-1776 + Navitoclax; first compound 0.08 µM) | relative viability (SGI-1776 + Navitoclax; first compound 0.8 µM) | relative viability (SGI-1776 + Navitoclax; first compound 2.53 µM) | relative viability (SGI-1776 + Navitoclax; first compound 8 µM) | relative viability (Entinostat + AZD7762; first compound 0.02 µM) | relative viability (Entinostat + AZD7762; first compound 0.06325 µM) | relative viability (Entinostat + AZD7762; first compound 0.2 µM) | relative viability (Entinostat + AZD7762; first compound 0.6325 µM) | relative viability (Entinostat + AZD7762; first compound 2 µM) | relative viability (Entinostat + Decitabine; first compound 0.02 µM) | relative viability (Entinostat + Decitabine; first compound 0.06325 µM) | relative viability (Entinostat + Decitabine; first compound 0.2 µM) | relative viability (Entinostat + Decitabine; first compound 0.6325 µM) | relative viability (Entinostat + Decitabine; first compound 2 µM) |
| --- | --- | --- | --- | --- | --- | --- | --- | --- | --- | --- | --- | --- | --- | --- | --- | --- | --- | --- | --- |
| NCI-H1915 | 0.488 | 0.499 | 0.481 | 0.356 | 0.152 | 0.795 | 0.802 | 0.793 | 0.781 | 0.713 | 0.694 | 0.716 | 0.526 | 0.286 | 0.276 | 0.246 | 0.258 | 0.229 | 0.197 |
| NCI-H1299 |  |  |  |  |  | 1.04 | 1.06 | 0.964 | 1.04 |  |  |  |  |  |  |  |  |  |  |
| HCC-827 | 0.988 | 0.879 | 0.631 | 0.62 | 0.287 | 1.05 | 1.01 | 1.08 | 0.99 | 0.247 | 0.244 | 0.159 | 0.203 | 0.159 | 0.318 | 0.338 | 0.315 | 0.223 | 0.226 |
| EMC-BAC-2 | 0.969 | 0.433 | 0.6 | 0.331 | 0.218 | 1.23 | 1.22 | 1.16 | 1.1 | 1.17 | 0.987 | 0.881 | 0.441 | 0.457 | 0.988 | 0.916 | 0.815 | 0.486 | 0.364 |
| NCI-H596 | 0.603 | 0.694 | 0.708 | 0.589 | 0.41 | 0.982 | 1.05 | 0.995 | 0.939 | 1.19 | 1.11 | 1.14 | 0.817 | 0.829 | 0.9 | 1.11 | 0.869 | 1.01 | 0.66 |
| NCI-H1792 |  |  |  |  |  | 0.614 | 0.72 | 0.654 | 0.479 | 0.731 | 0.747 | 0.465 | 0.236 | 0.153 | 0.613 | 0.505 | 0.48 | 0.354 | 0.196 |
| NCI-H2009 | 0.664 | 0.72 | 0.762 | 0.581 | 0.416 | 1.15 | 1.18 | 1.19 | 1.08 |  |  |  |  |  | 0.433 | 0.385 | 0.4 | 0.409 | 0.323 |
| SW 900 | 0.634 | 0.485 | 0.476 | 0.376 | 0.264 |  |  |  |  | 0.723 | 0.699 | 0.726 | 0.488 | 0.268 | 0.429 | 0.419 | 0.391 | 0.302 | 0.286 |
| SK-MES-1 | 1.02 | 1.03 | 1.26 | 0.954 | 0.743 | 1.35 | 1.23 | 1.27 | 1.15 |  |  |  |  |  | 0.362 | 0.36 | 0.434 | 0.303 | 0.331 |
| NCI-H1650 | 0.794 | 0.747 | 0.571 | 0.438 | 0.264 | 1.22 | 1.21 | 0.981 | 0.762 |  |  |  |  |  | 0.381 | 0.394 | 0.43 | 0.258 | 0.273 |
| Calu-6 |  |  |  |  |  | 0.922 | 0.909 | 0.856 | 0.626 |  |  |  |  |  |  |  |  |  |  |
| NCI-H650 | 0.45 | 0.469 | 0.35 | 0.367 | 0.181 |  |  |  |  | 1.12 | 0.95 | 1.08 | 0.823 | 0.325 | 0.312 | 0.336 | 0.252 | 0.278 | 0.226 |
| NCI-H661 | 0.718 | 0.774 | 0.707 | 0.58 | 0.468 |  |  |  |  |  |  |  |  |  | 0.58 | 0.549 | 0.538 | 0.479 | 0.356 |
| EBC-1 |  |  |  |  |  | 0.458 | 0.292 | 0.289 | 0.144 |  |  |  |  |  |  |  |  |  |  |
| NCI-H520 | 0.634 | 0.732 | 0.764 | 0.491 | 0.306 | 1.14 | 1.25 | 1.13 | 1.08 |  |  |  |  |  | 0.571 | 0.464 | 0.482 | 0.385 | 0.35 |
| NCI-H2342 | 0.855 | 0.859 | 0.709 | 0.772 | 0.691 |  |  |  |  | 0.514 | 0.569 | 0.507 | 0.428 | 0.398 | 0.806 | 0.704 | 0.65 | 0.607 | 0.557 |
| COR-L23 | 0.368 | 0.503 | 0.423 | 0.208 | 0.238 | 1.13 | 1.03 | 1.11 | 0.731 |  |  |  |  |  | 0.402 | 0.413 | 0.356 | 0.217 | 0.141 |
| NCI-H1703 |  |  |  |  |  | 1.22 | 0.914 | 0.457 | 0.178 | 0.109 | 0.153 | 0.129 | 0.116 | 0.106 |  |  |  |  |  |
| IA-LM | 0.972 | 0.997 | 1.13 | 0.863 | 0.682 | 0.951 | 0.754 | 0.941 | 0.905 |  |  |  |  |  |  |  |  |  |  |
| NCI-H1648 | 0.65 | 0.336 | 0.345 | 0.342 | 0.208 |  |  |  |  | 0.789 | 0.715 | 0.725 | 0.566 | 0.485 | 0.476 | 0.524 | 0.416 | 0.326 | 0.285 |
| SW 1573 | 0.698 | 0.891 | 0.88 | 0.422 | 0.43 | 1.1 | 0.862 | 1.15 | 0.719 |  |  |  |  |  | 0.526 | 0.46 | 0.486 | 0.311 | 0.22 |
| NCI-H522 | 0.794 | 0.944 | 0.863 | 0.741 | 0.428 |  |  |  |  | 0.779 | 0.846 | 0.85 | 1.07 | 0.796 | 0.65 | 0.684 | 0.693 | 0.666 | 0.639 |
| SK-LU-1 | 0.775 | 0.801 | 0.747 | 0.579 | 0.582 | 1.27 | 1.35 | 1.01 | 0.468 |  |  |  |  |  | 0.643 | 0.805 | 0.638 | 0.473 | 0.418 |
| A549 |  |  |  |  |  | 1.24 | 1.29 | 1.27 | 0.77 |  |  |  |  |  | 0.27 | 0.251 | 0.205 | 0.177 | 0.0922 |
